In PubChem BioAssay AID504713 (Southern Research Specialized Biocontainment Screening …, 2011):
Active and inactive are the calls of the source. No rule for the calls is given here.

Columns and labels:
[1] = tested on: mammalian cell cytotoxicity, viability, CC50; assay: mammalian cell cytotoxicity, cytotoxicity control, set 3 (AID 504713)
[2] = as above; settings: mammalian cell cytotoxicity, viability, CC50; at 100 µM (top of the series)

Structure (SMILES)	CC50 [1] [µM]	viability [2]
CCOc1ccc2c(c1)c(C(C)=O)c(C)n2-c1ccccc1C	90.1	–
COc1cccc(-c2ccc(-c3noc(-c4ccccc4F)n3)c(OC)n2)c1	–	91.7% (inactive)
CCOc1ccc2nc(NC(=O)c3cnccn3)sc2c1	–	80.3% (inactive)
COc1ccc2nc(NC(=O)c3oc4ccccc4c3C)sc2c1	–	94.4% (inactive)
O=C(COc1ccccc1)Nc1nc2ccccc2s1	–	104% (inactive)
CCOc1ccc2c(c1)c(C(C)=O)c(C)n2Cc1ccco1	–	97.1% (inactive)
CCOc1ccc(NC(=O)COc2ccc(C)cc2C)cc1	–	97.5% (inactive)
CCCOc1ccc2c(c1)c(C(C)=O)c(C)n2-c1ccccc1	–	97.2% (inactive)
O=C(COc1cccc2ccccc12)Nc1nc2ccccc2s1	–	82.9% (inactive)
Cc1cc2cc(F)ccc2n1-c1ccccc1	–	93.3% (inactive)
COc1cccc(NC(=S)Nc2cc(C)cc(C)n2)c1	–	100% (inactive)
CCOc1ccc2nc(NC(=O)COc3ccccc3)sc2c1	–	86% (inactive)
O=C(OC(C(=O)Nc1ccc(Cl)cc1C(F)(F)F)c1ccccc1)C1=COCCO1 (stereo not given)	–	84.8% (inactive)
CCOc1ccc2nc(NC(=O)C3(c4ccccc4)CCCC3)sc2c1	87.6	–
O=C(Cc1csc(-c2ccccc2F)n1)Nc1nc2ccccc2[nH]1	–	105% (inactive)
c1ccc(-c2cc(N3CCOCC3)nc3ccccc23)cc1	90.8	–
O=C(COC(=O)C1=COCCO1)Nc1ccc2c(c1)OCO2	–	94.5% (inactive)
Cc1ccc(OCC(=O)Nc2ccc(Cl)cc2)c(C)c1	–	97.9% (inactive)
COC(=O)c1c(C)[nH]c2ccccc12	–	82.6% (inactive)
O=C(Nc1nc2ccccc2[nH]1)c1cc2cc(Br)ccc2o1	41.7	–
CCOc1ccc2nc(NC(=O)Cc3ccc(OC)cc3)sc2c1	–	100% (inactive)
CC(=O)c1c(C)n(-c2ccccc2)c2ccccc12	–	98.2% (inactive)
Cc1cccnc1NC(=S)NC(=O)c1cncc(Br)c1	–	108% (inactive)
CCOc1ccc2c(ccn2-c2ccccc2)c1	–	99.9% (inactive)
CC(C)Cn1c2c(c(O)c(C(=O)Nc3nccs3)c1=O)CCCC2	–	100% (inactive)
N/C(=N\c1nc2cc(Cl)ccc2o1)NC(=O)c1ccccc1	43.2	–
S=C(Nc1ccccc1)Nc1ccc(Cl)cn1	–	107% (inactive)

Structure (SMILES)	CC50 [1] [µM]	viability [2]
Cc1ccc(OCC(=O)Nc2nc3ccc(F)cc3s2)cc1	–	103% (inactive)
O=C(COC(=O)C1CC1)c1c[nH]c2ccccc12	–	98.9% (inactive)
COc1ccc2c(c1)c(C(C)=O)c(C)n2-c1ccccc1	–	96.1% (inactive)
Cc1ccc2sc(NC(=O)COc3ccccc3)nc2c1C	36.6	–
Oc1ccc2[nH]ccc2c1	–	106% (inactive)
CC(=O)c1c(C)n(-c2cccc(Cl)c2)c2ccc(O)cc12	–	89% (inactive)
COc1ccc2nc(NC(=O)COc3ccc(C)cc3)sc2c1	87.4	–
Cc1onc(-c2c(Cl)cccc2Cl)c1/C(N)=N/OC(=O)C1CC1	–	107% (inactive)
Cc1cc(C)c(OCC(=O)Nc2nc3ccc(C)cc3s2)c(C)c1	–	97.6% (inactive)
COc1ccc2nc(NC(=O)COc3c(C)cc(C)cc3C)sc2c1	–	94.5% (inactive)
Cc1ccc(OCC(=O)Nc2nc3c(Cl)cccc3s2)cc1	–	108% (inactive)
CCOC(=O)c1c(C)[nH]c2ccccc12	–	85.7% (inactive)
O=C(COc1ccc2c3c(c(=O)oc2c1)CCC3)Nc1nc2ccccc2[nH]1	–	97% (inactive)
Cc1cc(C)c(OCC(=O)Nc2nc3ccccc3s2)c(Cl)c1	–	98.1% (inactive)
Cc1ccc(OC(C)C(=O)Nc2ncccn2)c(C)c1 (stereo not given)	–	96.2% (inactive)
N/C(=N\c1nc2ccccc2o1)NC(=O)c1ccccc1Br	–	87% (inactive)
Cc1cc2ccccc2n1-c1ccccc1	–	93.4% (inactive)
Cc1cc2cc(F)ccc2[nH]1	–	102% (inactive)
CC(C)(C)c1ccc(OCC(=O)Nc2nc3ccccc3s2)cc1	–	98.8% (inactive)
COC(=O)c1c(C)[nH]c2ccc(Cl)cc12	–	80% (inactive)
COc1ccc(Cl)cc1C(=O)Nc1nc2ccccc2[nH]1	60.5	–
N/C(=N\c1nc2ccccc2o1)NC(=O)C1CC1	–	83% (inactive)
Cc1ccccc1OCC(=O)Nc1ncn[nH]1	–	95.4% (inactive)
CCc1ccc2nc(/N=C(\N)NC(=O)c3ccccc3)nc(C)c2c1	–	94.8% (inactive)
Cc1ccccc1OCC(=O)Nc1ncccn1	–	106% (inactive)
Cc1ccc(OCC(=O)Nc2nnn(C)n2)c(C)c1	–	103% (inactive)
Cc1ccc(C(C)C)c(OCC(=O)Nc2nc3ccccc3s2)c1	–	92% (inactive)

Structure (SMILES)	CC50 [1] [µM]	viability [2]
Cc1ccccc1OCC(=O)Nc1noc(-c2ccccc2)n1	–	100% (inactive)
COc1ccc2nc(NC(=O)COc3ccccc3C(C)C)sc2c1	–	89.6% (inactive)
CCC(CC)c1nnc(NC(=O)c2ccc(N3CCCCC3)c([N+](=O)[O-])c2)s1	–	96.7% (inactive)
COC(=O)c1ccc2nc(NC(=O)COc3ccccc3)sc2c1	–	99.9% (inactive)
c1ccc(Nc2ncnc3c2oc2ccccc23)cc1	–	88% (inactive)
CCOC(=O)COc1nc(-c2ccc(Cl)cc2)cc(-c2ccco2)c1C#N	–	103% (inactive)
CCOc1ccc2c(c1)cc(C)n2-c1ccccc1	–	95.5% (inactive)
CCCN1CC(O)=C(c2nc3ccccc3s2)C1=N	–	88.5% (inactive)
CCOC(=O)c1cnc2cc(-c3ccc(C(C)(C)C)cc3)nn2c1N	–	94.4% (inactive)
Cc1ccc(OCC(=O)Nc2cccc3ccccc23)c(C)c1	–	93.3% (inactive)
O=C(COc1ccc(Cl)cc1)Nc1nc2ccc(F)cc2s1	–	96.1% (inactive)
COc1ccc(C(=O)Nc2ccc3nc(N4CCCCC4)cc(C)c3c2)c(OC)c1	–	96.5% (inactive)
Cc1cc2cc(O)ccc2[nH]1	–	103% (inactive)
COc1cccc(NC(=O)C2CC2)c1	–	90.2% (inactive)
Cc1ccccc1OCC(=O)Nc1nnn(C)n1	–	95.7% (inactive)
O=C(COc1ccccc1Cl)Nc1nc2ccccc2s1	–	92.2% (inactive)
COc1ccc2[nH]c(C)cc2c1	–	103% (inactive)
O=C(CC12CC3CC(CC(C3)C1)C2)NCc1ccc(F)cc1	–	99.1% (inactive)
Cc1cccc(C)c1OCC(=O)Nc1nc2ccccc2s1	–	93.4% (inactive)
CC(=O)Nc1ccc2nc(NC(=O)Cc3ccccc3)sc2c1	–	95.1% (inactive)
c1ccc(OCc2nnc(-c3ccccc3)o2)cc1	–	95.4% (inactive)
O=C(Nc1ccccc1)Nc1csc2ccccc12	76.6	–
O=C(O)CCC(=O)Nc1nc2ccccc2s1	–	102% (inactive)
Cc1cc(C)c(OCC(=O)Nc2nc3ccccc3[nH]2)c(C)c1	–	88.5% (inactive)
Cc1ccc(OCC(=O)Nc2cccc3c(NC(=O)COc4ccc(C)cc4C)cccc23)c(C)c1	–	100% (inactive)
N/C(=N\c1nc2ccccc2o1)NC(=O)c1ccc(F)cc1	57.3	–
CC(=O)c1c(C)n(-c2ccc(C)cc2)c2ccc(O)cc12	–	94.9% (inactive)

Structure (SMILES)	CC50 [1] [µM]	viability [2]
CCOc1ccc2[nH]ccc2c1	–	97.9% (inactive)
CCOc1ccc2nc(NC(=O)COc3ccc(Cl)c(C)c3)sc2c1	–	112% (inactive)
COc1ccc2c(c1)cc(C)n2-c1ccccc1	–	92.9% (inactive)
CC(=O)Nc1ccc2nc(NC(=O)COc3ccccc3)sc2c1	–	96.2% (inactive)
CN(NC(=O)c1c(Cl)cccc1Cl)c1cccc(Cl)n1	–	93.6% (inactive)
COc1ccc2nc(NC(=O)COc3ccc(Cl)cc3)sc2c1	–	95.2% (inactive)
N/C(=N\c1nc2ccccc2o1)NC(=O)c1ccccc1F	–	99.9% (inactive)
CCOc1ccc2nc(NC(=O)COc3ccc(F)cc3)sc2c1	–	103% (inactive)
Cc1ccc2oc(/N=C(\N)NC(=O)c3ccccc3)nc2c1	35.1	–
O=C(Cc1ccccc1Cl)Nc1nc2ccccc2[nH]1	–	100% (inactive)
O=C(Nc1nc2ccccc2[nH]1)c1ccc(Cl)c(Cl)c1	–	90.6% (inactive)
CCOc1ccc2[nH]c(C)cc2c1	–	93% (inactive)
CC(=O)c1c(C)n(-c2ccccc2)c2ccc(OS(=O)(=O)C(F)(F)F)cc12	–	92.2% (inactive)
N/C(=N\c1nc2ccccc2o1)NC(=O)c1ccccc1	19.3	–
CCOc1ccc2c(c1)c(C(C)=O)c(C)n2-c1ccccc1Cl	85.7	–
CC(Oc1ccc(Cl)cc1)C(=O)Nc1nc2ccccc2s1 (stereo not given)	92	–
CC(=O)c1c(C)n(-c2ccccc2C)c2ccc(O)cc12	–	95.5% (inactive)
CCOc1ccc2[nH]cc(C(=O)OC)c2c1	–	86.9% (inactive)
CC(=O)c1c(C)n(-c2ccccc2)c2ccc(O)cc12	–	85% (inactive)
O=C(CSc1n[nH]c(=O)n1C1CC1)c1ccc2c(c1)OCCO2	–	104% (inactive)
COc1ccc2nc(NC(=O)COc3ccccc3)sc2c1	–	109% (inactive)
Cc1ccc(OCC(=O)Nc2cccc3ncccc23)c(C)c1	–	92.8% (inactive)
Cc1ccc(OCC(=O)Nc2ccc3c4c(cccc24)CC3)c(C)c1	–	80.3% (inactive)
CCOc1ccc2nc(NC(=O)COc3ccc(OC)cc3)sc2c1	–	102% (inactive)
